Assay [1] addresses Cytochrome P450 2C9 (Homo sapiens, UniProt P11712).
In assay [2] the target is Cytochrome P450 2C19 (Homo sapiens, UniProt P33261). In words: Cytochrome panel assay with activity outcomes. Panel member name: p450-cyp2c19 Compounds with AC50 equal or less than 10 uM are considered active. Format: functional. Particulars: read-out: AC50.
In assay [3] the target is Cytochrome P450 2D6 (Homo sapiens, UniProt P10635).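 Also: CYP2D6 member of a cytochrome P450 panel assay.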
Assay [4] deals with Cytochrome P450 3A4 (Homo sapiens, UniProt P08684).
Chain of Cytochrome P450 3A4 (P08684 whole entry): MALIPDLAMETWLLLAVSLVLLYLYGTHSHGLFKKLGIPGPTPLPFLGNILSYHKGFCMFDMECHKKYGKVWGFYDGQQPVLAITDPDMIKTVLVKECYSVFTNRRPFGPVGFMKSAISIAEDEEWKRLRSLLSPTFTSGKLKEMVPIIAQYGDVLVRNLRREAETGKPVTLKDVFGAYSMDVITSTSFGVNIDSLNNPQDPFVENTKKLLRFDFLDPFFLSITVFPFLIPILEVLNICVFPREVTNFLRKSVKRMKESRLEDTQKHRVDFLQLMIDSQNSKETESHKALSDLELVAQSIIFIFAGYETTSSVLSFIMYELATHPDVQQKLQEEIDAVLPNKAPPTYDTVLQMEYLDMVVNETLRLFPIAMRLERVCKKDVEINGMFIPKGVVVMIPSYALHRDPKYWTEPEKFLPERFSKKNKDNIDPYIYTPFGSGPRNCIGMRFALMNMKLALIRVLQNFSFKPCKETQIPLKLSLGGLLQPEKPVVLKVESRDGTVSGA
The subject of assay [5] is SN12K1. As to the kind of experiment: cells. Format: functional. To be noted: Homo sapiens.
The target of assay [6] is Paired box protein Pax-8 (Homo sapiens, UniProt Q06710). As to the kind of experiment: inhibitors of PAX8-driven TPO luciferase reporter, dose response, RMG-I cells, cherry-pick (AID 687027).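 Also: luciferase reporter driven by Pax8 target thyroperoxidase promoter measured by SteadyGlo luminescence.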 Type of assay: functional, cell-based. (In general: In a reporter assay the amount or activity of a reporter protein is the signal.)
Chain of Paired box protein Pax-8 (Q06710 whole entry): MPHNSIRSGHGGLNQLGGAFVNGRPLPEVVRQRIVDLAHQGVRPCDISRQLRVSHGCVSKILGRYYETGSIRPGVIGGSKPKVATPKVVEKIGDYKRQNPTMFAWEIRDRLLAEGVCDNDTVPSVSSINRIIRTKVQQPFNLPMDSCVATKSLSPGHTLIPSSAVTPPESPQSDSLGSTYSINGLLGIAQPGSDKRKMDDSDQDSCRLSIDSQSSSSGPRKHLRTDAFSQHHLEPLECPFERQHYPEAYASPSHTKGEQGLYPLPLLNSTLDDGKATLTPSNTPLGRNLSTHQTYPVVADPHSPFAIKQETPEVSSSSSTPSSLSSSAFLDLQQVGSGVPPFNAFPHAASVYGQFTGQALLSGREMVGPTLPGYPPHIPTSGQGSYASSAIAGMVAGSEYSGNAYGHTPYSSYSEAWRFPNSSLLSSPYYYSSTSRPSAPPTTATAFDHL
The test system of assay [7] is P388. As to the kind of experiment: cells. Type of assay: functional. To be noted: Mus musculus.
Assay [8] deals with P388/ADR. In words: cells. Format: functional. To be noted: Mus musculus.

The structures appear in SMILES notation. Calls of active or inactive are those of the source. Where only a bound is given, the exact number is not on record here.

The text below walks through data of ChEMBL document CHEMBL1201862, “PubChem BioAssay data set” (2004).

As usually defined, the AC50 is the concentration at which the activity in the assay is half-maximal. As usually defined, the GI50 is the concentration giving 50% growth inhibition.

Chain of Cytochrome P450 2C19 (P33261 whole entry): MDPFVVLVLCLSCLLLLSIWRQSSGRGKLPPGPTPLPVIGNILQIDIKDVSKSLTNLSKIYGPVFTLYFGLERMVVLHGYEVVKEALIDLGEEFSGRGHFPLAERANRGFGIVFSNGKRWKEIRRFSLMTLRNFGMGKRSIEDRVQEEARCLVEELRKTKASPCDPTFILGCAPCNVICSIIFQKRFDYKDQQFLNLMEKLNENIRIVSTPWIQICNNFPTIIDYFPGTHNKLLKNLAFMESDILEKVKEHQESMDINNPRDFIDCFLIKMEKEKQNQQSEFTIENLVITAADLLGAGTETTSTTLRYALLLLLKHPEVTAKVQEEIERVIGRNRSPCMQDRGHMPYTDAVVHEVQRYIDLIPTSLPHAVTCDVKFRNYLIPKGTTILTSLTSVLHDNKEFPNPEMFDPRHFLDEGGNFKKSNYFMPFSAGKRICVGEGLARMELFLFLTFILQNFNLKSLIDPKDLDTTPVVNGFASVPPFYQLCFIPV
Chain of Cytochrome P450 2D6 (P10635 whole entry): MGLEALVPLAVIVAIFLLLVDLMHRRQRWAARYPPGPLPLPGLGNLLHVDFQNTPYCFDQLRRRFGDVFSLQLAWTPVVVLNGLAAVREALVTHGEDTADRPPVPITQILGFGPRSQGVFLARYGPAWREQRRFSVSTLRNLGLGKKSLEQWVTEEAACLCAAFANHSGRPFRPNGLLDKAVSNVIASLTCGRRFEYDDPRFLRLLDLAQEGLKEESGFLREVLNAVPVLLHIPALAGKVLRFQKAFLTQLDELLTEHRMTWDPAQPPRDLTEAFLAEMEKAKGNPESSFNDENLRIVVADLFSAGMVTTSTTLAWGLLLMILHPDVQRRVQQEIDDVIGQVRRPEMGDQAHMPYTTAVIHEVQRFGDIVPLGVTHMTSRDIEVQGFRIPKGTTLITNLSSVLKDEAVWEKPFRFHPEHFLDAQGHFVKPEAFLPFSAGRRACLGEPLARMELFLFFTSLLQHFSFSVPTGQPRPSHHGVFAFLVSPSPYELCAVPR
Chain of Cytochrome P450 2C9 (P11712 whole entry): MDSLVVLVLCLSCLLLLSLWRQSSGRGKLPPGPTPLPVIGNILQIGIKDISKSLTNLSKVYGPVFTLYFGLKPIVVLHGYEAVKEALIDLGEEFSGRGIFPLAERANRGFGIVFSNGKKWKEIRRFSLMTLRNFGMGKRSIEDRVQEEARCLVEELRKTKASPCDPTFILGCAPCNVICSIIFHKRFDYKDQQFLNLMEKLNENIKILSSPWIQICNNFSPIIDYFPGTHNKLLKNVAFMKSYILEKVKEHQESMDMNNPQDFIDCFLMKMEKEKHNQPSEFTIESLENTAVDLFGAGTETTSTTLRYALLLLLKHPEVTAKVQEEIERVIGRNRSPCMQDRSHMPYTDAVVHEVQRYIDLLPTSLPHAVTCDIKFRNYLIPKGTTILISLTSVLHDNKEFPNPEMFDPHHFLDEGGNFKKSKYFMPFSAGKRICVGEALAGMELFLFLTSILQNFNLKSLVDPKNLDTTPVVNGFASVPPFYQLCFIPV

On to `O=C(O)Cc1ccc2c(c1)N(S(=O)(=O)c1cccc(C(F)(F)F)c1)CC(C(=O)O)O2` (stereo not drawn), for which the values for the concentration at half-maximal activity (AC50) in assay [1] and in assay [2] were 15.8 µM (inconclusive) and 25.1 µM (inconclusive), respectively.
For the compound `CN(Cc1ccco1)c1cc(-c2cccc(NS(C)(=O)=O)c2)ncn1`, the AC50 in assay [2] was 31.6 µM (inconclusive); in assay [3], 25.1 µM (inconclusive).
On the same counts, the results for `N#Cc1ccccc1-c1ccc2ncnc(NC3CC3)c2c1` are 7.94 µM (inconclusive) and 39.8 µM (inconclusive).
For `OC(COc1ccc(OCC(O)CN2CCCCCC2)cc1)CN1CCCCCC1` (stereo not drawn), the AC50 in assay [2] was 1.78 µM (inconclusive); in assay [3], 15.8 µM (inconclusive).
In the case of `CC1=C(C(=O)Nc2ccccc2)C(c2ccco2)NC(S)=N1` (stereo not drawn), in assay [1], the concentration at half-maximal activity (AC50) is 12.6 µM (inconclusive).
In the case of `COc1cccc(C2NC(c3cccc(OC)c3O)C(C)C(=O)C2C)c1O` (stereo not drawn), the concentration at half-maximal activity (AC50) in assay [1] is 10 µM (inconclusive); in assay [3], 7.94 µM (inconclusive).
Take `COc1ncc2nc(CCc3ccccc3)c(=O)n(CCC#N)c2n1`: the AC50 in assay [3] was 25.1 µM (inconclusive).
With `Nc1nc(SCCc2ccccc2)c2nc[nH]c2n1`, the AC50 in assay [1] and in assay [3] was 3.98 µM (inconclusive) each time.
Turning to `COc1cccc(OCc2nnc(SCC(=O)NCc3ccco3)n2C)c1`, the concentration at half-maximal activity (AC50) in assay [1] was 15.8 µM (inconclusive); in assay [2], 25.1 µM (inconclusive).
Turning to `Cc1noc(C)c1-c1ccc2ncnc(NCc3ccccc3)c2c1`, the AC50 in assay [3] is 39.8 µM (inconclusive).
With `N#Cc1cc(-c2ccc(Cl)cc2)cnc1Sc1ccc(F)cc1`, the figures for the AC50 in assay [1], in assay [2] and in assay [4] were 7.94 µM (inconclusive), 1 µM (inconclusive) and 14.1 µM (inconclusive), respectively.
With `O=S(=O)(c1ccccc1)N1CCC2(CCN(Cc3nccs3)CC2)CC1`, the concentration at half-maximal activity (AC50) in assay [3] is 25.1 µM (inconclusive).
For `CCOC(=O)CN(c1ccccn1)S(=O)(=O)c1ccccc1`, the values for the half-maximal activity concentration (AC50) in assay [1] and in assay [2] were 3.55 µM (inconclusive) and 31.6 µM (inconclusive), respectively.
Turning to `Cc1ccc(C(c2ccc(C)o2)c2cccc([N+](=O)[O-])c2O)o1`, the concentration at half-maximal activity (AC50) was 14.1 µM (inconclusive) in assay [3] and 28.2 µM (inconclusive) in assay [4].
As to `O=C(c1cc(-c2ccc(Cl)cc2Cl)on1)N1CCN(C(=O)c2ccco2)CC1`, in assay [3], the half-maximal activity concentration (AC50) was 20 µM (inconclusive).
Turning to `COc1cc(NC(=O)COC(=O)c2nc3nc(C)cc(C)n3n2)cc(OC)c1`, the AC50 in assay [1] is 28.2 µM (inconclusive); in assay [3], 15.8 µM (inconclusive).
On to `CCOC(=O)CSC1=C(C#N)C(C)C2=C(O)CCCC2=N1` (stereo not drawn), for which the concentration at half-maximal activity (AC50) in assay [1] was 22.4 µM (inconclusive).
Consider `COC1=C(C)C(=O)C2=C(C1=O)C(CO)N1C(C#N)C3CC4C(C1C2N1CCOC41)N3C` (stereo not drawn), for which the results for the concentration for 50% growth inhibition (GI50) in assay [5], in assay [7] and in assay [8] were 0.294 µM (active), < 10 nM (active) and 0.01 µM (active), respectively. The concentration at half-maximal activity (AC50) in assay [6] is < 260 nM (active).
As for `COc1cccc2c1C(=O)c1c(O)c3c(c(O)c1C2=O)C[C@@](O)(C(=O)CO)C[C@@H]3OC1CC(N2CCOCC2)C(O)C(C)O1` (stereo partly drawn), the GI50 is 0.00366 µM (active) in assay [5], 2.5 nM (active) in assay [7] and 0.00136 µM (active) in assay [8].
On to `CC(=O)OC1CC2(O)C(CCC3(C)C(c4ccc(=O)oc4)CCC32O)C2(C)C1=CC(O)C1OC12` (stereo not drawn), for which the values for the GI50 in assay [5], in assay [7] and in assay [8] were 0.0424 µM (active), 46100 nM (inactive) and 79.1 µM (inactive), respectively.
For `C=C1C(=O)O[C@H]2[C@H]1[C@@H](OC(=O)C=C(C)C)CC1=C[C@@H](C[C@@]3(C)O[C@@H]23)OC1=O`, the figures for the GI50 in assay [5] and in assay [7] were 6.46 µM (inactive) and 139 nM (active), respectively.
Regarding `CN(C)CCNC(=O)c1cc(Cl)cc2ccc(-c3ccccc3)nc12`, the values for the GI50 in assay [5], in assay [7] and in assay [8] were 1.77 µM (inactive), 476 nM (active) and 1.47 µM (inactive), respectively.
With `O=P1(c2ccccc2)Nc2ccccc2SSc2ccccc2N1`, the GI50 in assay [5] was 15.3 µM (inactive); in assay [7], 839 nM (active); in assay [8], 7.45 µM (inactive).
For the compound `C=CCC(O[Si](C)(C)C(C)(C)C)c1cc(O[Si](C)(C)C(C)(C)C)ccc1OC` (stereo not drawn), the GI50 in assay [5] is > 100 µM (inactive); in assay [7] it was 22200 nM (inactive); in assay [8] it was > 100 µM (inactive).
`C=CCc1cccc(/C=N\N/C(N)=N/O)c1O`: the GI50 in assay [5] is 2.01 µM (inactive); in assay [7] it was 1190 nM (inactive); in assay [8] it was 0.78 µM (active).
On the same counts, the results for `Oc1c(CNCCCN2CCCC2)cc(Cl)c2cccnc12` are 0.942 µM (active), 1690 nM (inactive) and 1.1 µM (active).
Turning to `COc1cc(CCCOC2OC(COC3OCC(O)C(O)C3O)C(O)C(O)C2O)cc2cc(-c3ccc4c(c3)OCO4)oc12` (stereo not drawn), the figures for the GI50 in assay [5], in assay [7] and in assay [8] were > 175 µM (inactive), > 175000 nM (inactive) and > 175 µM (inactive), respectively.
Regarding `Cc1ccc2cc3cccc(C(=O)NCCN(C)C)c3nc2c1`, the GI50 in assay [5] is 0.426 µM (active); in assay [7], 257 nM (active); in assay [8] it was 0.252 µM (active).
On the same counts, the results for `C[C@@H]1[C@@H]2[C@@H](C=C3C4CCC5Cc6nc7c(nc6C[C@@]5(C)C4C[C@H](O)[C@]32CO)CC2CCC3C4=C[C@H]5O[C@@]6(OC(C)(CO)C[C@@H]6O)[C@H](C)[C@@]5(O)[C@]4(C)[C@@H](O)CC3[C@]2(C)C7)O[C@]12CCC(C)(C)O2` (stereo partly drawn) are 0.000365 µM (active), 0.365 nM (active) and 0.0918 µM (active).
Regarding `COc1ccc(N[C@@H]2c3cc4c(cc3C(c3cc(OC)c(O)c(OC)c3)[C@H]3C(=O)OCC32)OCO4)cc1OC` (stereo partly drawn), the GI50 is < 10 nM (active) in assay [7] and 0.269 µM (active) in assay [8].
On to `CNC(=O)OCc1nc(SC2CCCCO2)n(C)c1COC(=O)NC` (stereo not drawn), for which the GI50 in assay [5] is > 100 µM (inactive); in assay [7], > 100000 nM (inactive); in assay [8] it was > 100 µM (inactive).
`O=NN(CCCl)C(=O)NC1CCCCC1` [LOMUSTINE]: the GI50 is 32.6 µM (inactive) in assay [5], 4230 nM (inactive) in assay [7] and 4.56 µM (inactive) in assay [8].
